The record followed here is the NIST ThermoML archive (doi:10.1021/acs.jced.5b00582).

Numbers after ± are expanded uncertainties.

For series [1] the following is noted: Liquid; for mass density: 298.15 K, 101.33 kPa, Pycnometric method; for vapor or sublimation pressure: Ebulliometric method (Recirculating still).
The nature of series [2]: refractive index (Na D-line) (dimensionless). Conditions: 298.15 K; 101.33 kPa; Liquid; Standard Abbe refractometry.

As for `CCC(C)OC(C)=O` (configuration not stated) [1-methylpropyl ethanoate], the mass density (as a rule, the mass of a sample divided by its volume) in series [1] is recorded as 863.8 ± 0.3 kg/m3. Moreover, in series [1] (385.12 K), the vapor or sublimation pressure (as a rule, the pressure of vapour in equilibrium with the condensed phase) is given as 101.3 ± 0.86 kPa. Also, the refractive index (in general, the speed of light in vacuum divided by its phase velocity in the sample) in series [2] worked out at 1.3872 ± 0.0004.
With `COCCO` [2-methoxyethan-1-ol], the mass density in series [1] was determined as 960.1 ± 0.3 kg/m3. In series [1] (397.48 K), the “vapor or sublimation pressure” value is 101.3 ± 0.86 kPa. The refractive index in series [2] stood at 1.4002 ± 0.0004.
Take `COCCOC` [1,2-dimethoxyethane]: the mass density in series [1] was 860.4 ± 0.3 kg/m3. Further, the “vapor or sublimation pressure” value in series [1] (357.71 K) amounted to 101.3 ± 0.86 kPa. Besides, the refractive index in series [2] stood at 1.378 ± 0.0004.
As for `CCC(C)=O` [butanone], the mass density in series [1] worked out at 799.7 ± 0.3 kg/m3. Moreover, the “vapor or sublimation pressure” value in series [1] (352.76 K) turned out to be 101.3 ± 0.86 kPa. Moreover, the refractive index in series [2] is 1.3761 ± 0.0004.
